Test results as given in patent US8338089B2, “Method of inhibiting lentiviral infectivity utilizing zinc chelation to inhibit Vif activity” (The Johns Hopkins University, priority 2006, dated 2012).
Values joined by “and” are separate entries in the source; they are usually repeats but may differ in a detail not shown here. Equal entries are not always repeated.

What was measured:
[1] = test system: SIVagm Vif-Cul5 interaction; test: SIVagm Vif immunoprecipitation and immunoblot in 293T cells; type: cell-based; conditions: 4 μM TPEN vs vehicle DMSO
Experimental: (§1) Hydrophobic residues are represented by a Phi (Φ). […] 293T cells were transfected with the indicated SIV Vif expression vectors and treated with 4 μM TPEN. Cell lysates were immunoprecipitated and analyzed by SDS-PAGE followed immunoblotting for Cul5, HA, ElonginB, and ElonginC. […] 293T cells were transfected with SOCS-3-HA and treated with 4 μM TPEN. Cell lysates were immunoprecipitated and analyzed by SDS-PAGE and immunoblotting.
(§2) Medium was removed 12 h prior to harvesting cells and replaced with either fresh medium alone or medium containing the indicated concentration of TPEN (Sigma). After a 12-h incubation, the cells were harvested for immunoprecipitation and immunoblot analysis, or the medium was collected for MAGI assay.
(§3) Transfected 293T cells were harvested, washed twice with cold PBS, and lysed in lysis buffer (50 mM Tris, pH 7.5, with 150 mM NaCl, 1% Triton X-100, and complete protease inhibitor cocktail tablets) at 4° C. for 1 h, then centrifuged at 10,000×g for 30 min. For myc-tag immunoprecipitation, precleared cell lysates were mixed with anti-myc antibody (Upstate) and incubated with protein G at 4° C. for 3 h. […] The eluted materials were then analyzed by SDS-PAGE and immunoblotting as previously described (Yu et al. (2003) (supra)). […]

Vif-A3G interaction = target: T1, Vif-A3G interaction (Human immunodeficiency virus type 1 group M subtype B, UniProt P69723); test: Vif-A3G co-immunoprecipitation in 293T cells; type: cell-based, HIV-1; conditions: 4 μM TPEN vs control vehicle
T1 construct: expressed in transfected cells; host or cells: 293T
T1 sequence (Q9HC16 whole entry): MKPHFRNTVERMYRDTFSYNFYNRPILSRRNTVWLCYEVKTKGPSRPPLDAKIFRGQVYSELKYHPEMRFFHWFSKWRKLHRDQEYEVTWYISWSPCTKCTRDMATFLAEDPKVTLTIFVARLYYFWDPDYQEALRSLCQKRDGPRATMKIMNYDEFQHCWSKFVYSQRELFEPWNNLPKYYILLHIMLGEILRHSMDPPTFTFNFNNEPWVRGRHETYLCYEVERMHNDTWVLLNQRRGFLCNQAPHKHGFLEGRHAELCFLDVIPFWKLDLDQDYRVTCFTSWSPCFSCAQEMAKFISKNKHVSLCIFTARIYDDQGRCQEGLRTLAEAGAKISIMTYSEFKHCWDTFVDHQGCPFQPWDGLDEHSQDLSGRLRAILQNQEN
T1 sequence (P69723 whole entry): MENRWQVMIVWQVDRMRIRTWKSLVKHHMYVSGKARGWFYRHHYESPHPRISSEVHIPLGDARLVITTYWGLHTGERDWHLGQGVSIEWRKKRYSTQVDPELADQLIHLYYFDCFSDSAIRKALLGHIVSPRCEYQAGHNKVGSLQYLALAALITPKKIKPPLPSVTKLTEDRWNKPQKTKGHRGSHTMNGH
T1 sequence (Q13951 whole entry, further chain): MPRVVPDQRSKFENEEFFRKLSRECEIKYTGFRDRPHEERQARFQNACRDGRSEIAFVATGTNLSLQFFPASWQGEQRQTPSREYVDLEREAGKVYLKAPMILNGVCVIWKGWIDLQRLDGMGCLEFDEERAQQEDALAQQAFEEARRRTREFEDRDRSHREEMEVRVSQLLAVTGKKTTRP
T1 sequence (Q15369 whole entry, further chain): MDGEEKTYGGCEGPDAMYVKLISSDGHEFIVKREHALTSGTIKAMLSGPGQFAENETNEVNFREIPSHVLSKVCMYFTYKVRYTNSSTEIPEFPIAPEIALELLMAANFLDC
T1 sequence (Q15370 whole entry, further chain): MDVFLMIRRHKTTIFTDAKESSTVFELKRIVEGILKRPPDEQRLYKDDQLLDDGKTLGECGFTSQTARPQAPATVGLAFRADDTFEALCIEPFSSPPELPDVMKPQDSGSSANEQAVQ
Experimental: (§4) 293T cells were transfected with the indicated plasmids in the presence of 4 μM TPEN or control vehicle. Cell lysates were analyzed for A3G degradation by SDS-PAGE followed by immunoblotting for A3G-HA, Vif-myc, and ribosomal p19 as a loading control. […] 293T cells were transfected with the indicated plasmids and treated with […] TPEN or control vehicle. Vif-HA was immunoprecipitated from prepared lysates. Lysates were analyzed by SDS-PAGE followed by immunoblotting for Vif-HA and A3G-myc. […] Cells were infected with WT or ΔVif NL4-3 virus in the presence of A3G-myc and treated with 4 μM TPEN or DMSO. Cells were harvested and virus was isolated from the supernatant by ultracentrifugation and analyzed by SDS PAGE and immunoblotting against Vif, myc, and p24. […] Adenovirus E4orf6 mediated p53 degradation is not affected by 4 μM TPEN. […] Cells were harvested and analyzed for p53 degradation by SDS-PAGE followed by immunoblotting for p53, E4orf6-myc, and ribosomal p19 as a loading control. […]
as §3, with “min.” for “min. For myc-tag immunoprecipitation, precleared cell lysates were mixed with anti-myc antibody (Upstate) and incubated with protein G at 4° C. for 3 h.”

[2] = test system: virion incorporation of A3G; test: A3G levels in cells and virions, WT or ΔVif NL4-3 virus with A3G-myc; type: cell-based, HIV-1; conditions: 4 μM TPEN vs DMSO
Experimental: 293T cells were transfected with the indicated plasmids in the presence of 4 μM TPEN or control vehicle. Cell lysates were analyzed for A3G degradation by SDS-PAGE followed by immunoblotting for A3G-HA, Vif-myc, and ribosomal p19 as a loading control. […] 293T cells were transfected with the indicated plasmids and treated with […] TPEN or control vehicle. Vif-HA was immunoprecipitated from prepared lysates. Lysates were analyzed by SDS-PAGE followed by immunoblotting for Vif-HA and A3G-myc. […] Cells were infected with WT or ΔVif NL4-3 virus in the presence of A3G-myc and treated with 4 μM TPEN or DMSO. Cells were harvested and virus was isolated from the supernatant by ultracentrifugation and analyzed by SDS PAGE and immunoblotting against Vif, myc, and p24. […] Adenovirus E4orf6 mediated p53 degradation is not affected by 4 μM TPEN. 293T cells were transfected with p53 and E4orf6-myc expression vectors in the presence of 4 μM TPEN or control vehicle. Cells were harvested and analyzed for p53 degradation by SDS-PAGE followed by immunoblotting for p53, E4orf6-myc, and ribosomal p19 as a loading control.
Medium was removed 12 h prior to harvesting cells and replaced with either fresh medium alone or medium containing the indicated concentration of TPEN (Sigma). […]

[3] = test system: NL4-3 virus infectivity in MAGI cells; test: MAGI assay of virus infectivity, virus produced in 293T or 293T-A3G cells; type: cell-based, HIV-1
Experimental: MAGI cells were infected with wild-type or Vif deficient NL4-3 produced in the absence or presence of A3G and […] TPEN as indicated. Relative infectivity was calculated by setting wild type virus infectivity to 100% (lane 1).
293T and MAGI-CCR5 cells (Chackerian et al. (1997) J Virol 71, 3932-3939) were maintained and transfected or infected as previously described (Yu et al. (2003) (supra)). The MAGI assay was performed as described previously and the antibodies used in this study have been described: anti-HA antibody-agarose conjugate, anti-myc antibody-agarose conjugate, anti-Vif, anti-Elongin B, anti-Elongin C, anti-Myc, anti-HA, and anti-human ribosomal P antigens (Yu et al. (2003) (supra)). The anti-p53 mouse mAb was obtained from Oncogene Research Products (Cat. #OP03).
as §2
In order to assess the biological relevance of the zinc requirement in Vif-Cul5 interaction and assess whether A3G retained antiviral function in the presence of 7 μM TPEN, we studied the effect of TPEN on virus infectivity. MAGI cells were infected with wild type or Vif deficient virus produced in 293T or 293T-A3G cells in the presence of 7 μM TPEN or control DMSO. We set the infectivity of WT virus in the absence of A3G to 100%, and calculated the relative infectivity under all treated conditions (FIG. 4). As expected, in the presence of A3G and the absence of Vif, there was a drastic decrease of infectivity to 8% (FIG. 4, lane 4). However in the presence of Vif, A3G was neutralized resulting in 91% infectivity (FIG. 4, lane 3). One would expect zinc chelation to have an effect on virus infectivity independent of Vif function. We observed a modest decrease in infectivity, of about 15% even in the absence of A3G (FIG. 4, lanes, 5 and 6). […]

[4] = target: T2, HIV-1 Vif-Cul5 interaction (Human immunodeficiency virus type 1 group M subtype B, UniProt P69723); test: Vif-HA immunoprecipitation and immunoblot for Cul5, ElonginB, ElonginC in Vif-expressing 293T cells; type: cell-based
T2 construct: expressed in transfected cells; host or cells: 293T
T2 sequence (Q15370 whole entry): as the sequence (Q15370 whole entry, further chain) above
T2 sequence (Q15369 whole entry, further chain): as the sequence (Q15369 whole entry, further chain) above
T2 sequence (Q13951 whole entry, further chain): as the sequence (Q13951 whole entry, further chain) above
T2 sequence (P69723 whole entry): as the sequence (P69723 whole entry) above
Experimental: The Cul5-Vif E3 ubiquitin ligase binds A3G and brings it in close proximity with the E2 ubiquitin conjugating enzyme. Polyubiquitinated A3G is recognized by the proteasome and subsequently degraded. […] 293T cells were transfected with Vif-HA expression vectors as previously described and treated with the indicated amounts of TPEN. Vif-HA was immunoprecipitated and eluted materials were then analyzed by SDS-PAGE and immunoblotting for Cul5, Vif-HA, ElonginB, and ElonginC. […] 293T cells were transfected with Vif-HA and treated with the indicated amounts of TPEN. Cell lysates were harvested and analyzed by SDS-PAGE and immunoblotting for Cul5 and Vif-HA.
as §2
Transfected 293T cells were harvested, washed twice with cold PBS, and lysed in lysis buffer (50 mM Tris, pH 7.5, with 150 mM NaCl, 1% Triton X-100, and complete protease inhibitor cocktail tablets) at 4° C. for 1 h, then centrifuged at 10,000×g for 30 min. For myc-tag immunoprecipitation, precleared cell lysates were mixed with anti-myc antibody (Upstate) and incubated with protein G at 4° C. for 3 h. For HA tag immunoprecipitation, precleared cell lysates were mixed with anti-HA antibody-conjugated agarose beads (Roche) and incubated at 4° C. for 3 h. Samples were then washed three times with washing buffer (20 mM Tris, pH 7.5, with 100 mM NaCl, 0.1 mM EDTA, and 0.05% Tween-20). The beads were eluted with elution buffer (0.1 M glycine-HCl, pH 2.0) or 2× loading buffer. The eluted materials were then analyzed by SDS-PAGE and immunoblotting as previously described (Yu et al. (2003) (supra)).

[5] = test system: Rbx function (E4orf6 mediated p53 degradation); test: Adenovirus E4orf6 mediated p53 degradation in 293T cells (Rbx function); type: cell-based; conditions: 4 μM TPEN
Experimental: as §4
as §3, with “min.” for “min. For myc-tag immunoprecipitation, precleared cell lysates were mixed with anti-myc antibody (Upstate) and incubated with protein G at 4° C. for 3 h.”

[6] = test system: HIV-1 Vif mediated A3G degradation; test: Vif mediated A3G degradation in transfected 293T cells (immunoblot); type: cell-based
Experimental: as §4
as §3, with “min.” for “min. For myc-tag immunoprecipitation, precleared cell lysates were mixed with anti-myc antibody (Upstate) and incubated with protein G at 4° C. for 3 h.”

Cul5-SOCS-3 E3 ligase = target: T3, Cul5-SOCS-3 E3 ligase (Homo sapiens, UniProt O14543); test: SOCS-3-HA immunoprecipitation and immunoblot in 293T cells; type: cell-based; conditions: 4 μM TPEN vs control DMSO
T3 construct: expressed in transfected cells; host or cells: 293T
T3 sequence (O14543 1-225): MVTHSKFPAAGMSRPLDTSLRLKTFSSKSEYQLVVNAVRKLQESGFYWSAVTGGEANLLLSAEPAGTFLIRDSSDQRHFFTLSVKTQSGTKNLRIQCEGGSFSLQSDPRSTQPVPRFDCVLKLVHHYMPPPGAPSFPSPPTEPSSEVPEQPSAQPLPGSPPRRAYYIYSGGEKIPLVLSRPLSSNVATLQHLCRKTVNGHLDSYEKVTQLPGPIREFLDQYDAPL
Experimental: as §1, §2, §3

[7] = test system: SIVsyk Vif-Cul5 interaction; test: SIVsyk Vif immunoprecipitation and immunoblot in 293T cells; type: cell-based; conditions: 4 μM TPEN vs vehicle DMSO
Experimental: as §1, §2, §3

lentivirus = test: Inhibition in a method of the invention (lentiviral infectivity)

Compound | Cul5 co-immunoprecipitation with SIVagm Vif [1] | ElonginB and ElonginC detected with SIVagm Vif [1] | effect on Vif-A3G interaction (Vif-A3G interaction) | A3G incorporation into virions in the presence of Vif [2] | cellular A3G protein levels in the presence of Vif [2] | decrease in infectivity in the absence of A3G ([3]; 7 μM TPEN on producer cells, relative to WT virus without A3G = 100%) | infectivity loss in the presence of A3G and Vif ([3]; 7 μM TPEN on producer cells, relative to WT virus without A3G = 100%, 91% infectivity without TPEN) | effect on A3G function ([3]; 7 μM TPEN, FIG. 4 lanes 7 and 8) | effect on cellular Cul5 protein levels ([4]; 293T cells transfected with Vif-HA, cell lysates) | IC50 ([4]; IC50, decrease of Cul5-Vif interaction, Vif-expressing 293T cells, increasing concentrations of TPEN, 12-h incubation) | interaction of Vif with ElonginB and ElonginC ([4]; Vif-expressing 293T cells, increasing concentrations of TPEN) | p53 levels in the presence of E4orf6 [5] | A3G expression or stability in the absence of HIV-1 Vif ([6]; 4 μM TPEN) | A3G degradation induced by HIV-1 Vif ([6]; 4 μM TPEN vs control vehicle) | interaction of SOCS-3 with Cul5 (Cul5-SOCS-3 E3 ligase) | Cul5 co-immunoprecipitation with SIVsyk Vif [7] | ElonginB and ElonginC detected with SIVsyk Vif [7] | effectiveness as inhibitor in a method of the invention (lentivirus)
c1ccc(CN(CCN(Cc2ccccn2)Cc2ccccn2)Cc2ccccn2)nc1 [TPEN, N,N,N′,N′-Tetrakis-(2-pyridylmethyl)ethylenediamine] | marked decrease | equal amounts | no effect | enhancing incorporation | increased | about 15% | about 87% | no effect | did not have any effect | ~1790 nM and 1790 nM | remained constant | declined | no effect | abolished | equal interaction | marked decrease | equal amounts | 
Oc1ccc(O)c(Cl)c1 [Chloroquinol] |  |  |  |  |  |  |  |  |  |  |  |  |  |  |  |  |  | not an effective inhibitor
